Patent CN108864033A, “苯基取代的酰肼衍生物及其用途” (Guangdong HEC Pharmaceutical Co Ltd, priority 2017, dated 2018)

test system: glutamate-induced oxidative stress injury of HT22 cells (谷氨酸诱导的HT22细胞氧化应激损伤); test: Protection of HT22 cells against glutamate-induced oxidative stress injury (LDH release, cell viability); assay type: cell-based; conditions: HT-22, HT22 mouse hippocampal neuronal cells, 15 mM glutamate, 24 h, 10 concentrations, 0.25% DMSO

Structure (SMILES)	EC50 [nM]
Cc1ccc(N(/N=C/c2ccc3c(c2)OCO3)C(=O)C(F)(F)F)c(C)c1 [实施例1, (E)-N'-(苯并-1,3-二恶环戊烷-5-亚甲基)-N-(2,4-二甲苯基)-2,2,2-三氟乙酰肼]	130
Cc1ccc(N(/N=C/c2ccc(Cl)cc2Cl)C(=O)C(F)(F)F)c(C)c1 [实施例2, (E)-N'-(2,4-二氯苯亚甲基)-N-(2,4-二甲苯基)-2,2,2-三氟乙酰肼]	130
CC(=O)N(/N=C/c1ccc2c(c1)OCO2)c1ccc(C)cc1C [实施例3, (E)-N'-(苯并-1,3-二恶环戊烷-5-亚甲基)-N-(2,4-二甲苯基)乙酰肼]	4120
